Experimental data from PubChem BioAssay AID1863 (Southern Research Specialized Biocontainment Screening …, 2009).

Tested on: S. Typhimurium PhoP-regulated promoter GFP reporter, 4 h
Assay: inhibitors of PhoP regulon expression, primary screen, Salmonella Typhimurium, GFP reporter (AID 1863)

Row | SMILES | IC50 [µM]
1 | CC(C(=O)c1ccc(-c2ccccc2)cc1)[n+]1cccc(NC(=O)c2ccccc2)c1 (configuration not stated) | 78.3
2 | CCCCCCCCn1c2c(c(=N)c3ccccc31)CCC2 | 47.7
3 | Nc1nonc1-n1nnc(C(=O)N/N=C/c2cc(Br)ccc2O)c1CSC1=NCCS1 | 122
4 | Cc1conc1NC(c1cccs1)c1ccc2cccnc2c1O (configuration not stated) | 60.9
5 | Cc1nc2c(=O)n(C)c(=O)nc-2n(C)n1 | 1.15
6 | Oc1c(CN2CCc3ccccc3C2)cc(Cl)c2cccnc12 | 22
7 | CCCCCCCCCCOC(=O)Cn1c(COc2ccc(Cl)cc2)[n+](C)c2ccccc21 | 19.5
8 | CCN1/C(=C/C=C/c2sc3ccccc3[n+]2CC)Sc2ccccc21 | 33.5
9 | COC(=O)C1C(O)C(C)C(O)C(C)(O)/C=C\C=C(/C)C(=O)Nc2c(C)c(OC(C)=O)c3c(c2O)C(=O)C(C)=C2OCOC(=C23)/C(C)=C/C(C)(O)C(O)C(C)C1O (configuration not stated) | 17.2
10 | O=C(C[n+]1cccc(CNC(=O)c2ccc(OC(F)F)cc2)c1)Nc1ccc(SC(F)F)cc1 | 94.1
11 | CCCCCOc1ccc(CSC(=N)N)cc1[N+](=O)[O-] | 82.7
12 | CC[C@H]1OC(=O)[C@H](C)[C@@H](O[C@H]2C[C@@](C)(OC)[C@@H](O)[C@H](C)O2)[C@H](C)[C@@H](O[C@@H]2O[C@H](C)C[C@H](N(C)C)[C@H]2O)[C@](C)(O)C[C@@H](C)CN(C)[C@H](C)[C@@H](O)[C@]1(C)O | 2.36
13 | O=C(N/N=C/c1ccc([N+](=O)[O-])s1)C(O)c1ccccc1 (configuration not stated) | 83.6
14 | O=c1c(O)cccc2cc(O)c(O)c(O)c12 | 27.5
15 | O=[N+]([O-])c1cc(F)c2cccnc2c1O | 12
16 | Nc1[nH]c(=O)ncc1F | 29.2
17 | CC(C)(C)/C(O)=C/c1nc2cc(Cl)ccc2oc1=O | 99.5
18 | N=c1n(CC(=O)c2ccc(Br)s2)c2ccccc2n1Cc1ccccc1 | 68.3
19 | CCCOc1ccc(C(=O)C(CCC(CNCC)C(=O)c2ccc(OCCC)cc2)CNCC)cc1 (configuration not stated) | 94.6
20 | Oc1c(CN2CCN(c3ccc(F)cc3)CC2)cc(Cl)c2cccnc12 | 49
21 | CC1COc2c(N3CCN(C)CC3)c(F)cc3c(=O)c(C(=O)O)cn1c23 (configuration not stated) | 0.39
22 | COc1cnc(-c2ccccn2)[nH]c1=O | 55.2
23 | CCn1cc(C(=O)O)c(=O)c2cc(F)c(N3CCN(C(=S)Nc4ccccc4OC)CC3)cc21 | 10.9

Row | SMILES | IC50 [µM]
24 | NC1=NC[C@H](Cc2ccc(O)cc2)N1CCC12CC3CC(CC(C3)C1)C2 | 75.3
25 | CCCCCCCCCCOC(=O)Cn1c(COc2ccccc2)[n+](C)c2ccccc21 | 17.8
26 | CN(C)c1ccc(/C=C/c2ccc3c4ccccc4ccc3[n+]2-c2ccccc2)cc1 | 21
27 | O=C1C=C(O)c2c(O)cc(O)c(O)c2C1=O | 73.2
28 | CCN1CCN(C(c2ccc(C(F)(F)F)cc2)c2ccc3cccnc3c2O)CC1 (configuration not stated) | 55.1
29 | CCn1cc(C(=O)NCCO)c(=O)c2cc(F)c(N3CCN(C)CC3)cc21 | 22.4
30 | CCCCCCCCCn1c2c(c(=N)c3c1CCC3)CCC2 | 37.2
31 | Nc1ccc2c(c1)C(=O)C(=O)c1ccccc1-2 | 11.9
32 | Oc1c(Cl)cc(Cl)c2cccnc12 | 27.9
33 | CCn1cc(C(=O)O)c(=O)c2cc(F)c(N3CCN(C(=S)NC(=O)c4ccc(OC)cc4)CC3)cc21 | 11.3
34 | CCCCN(CCCC)C(=O)c1cn(CC)c2cc(N3CCN(C)CC3)c(F)cc2c1=O | 11.4
35 | O=C(c1cccs1)c1no[n+]([O-])c1C(=O)c1cccs1 | 33.7
36 | CC(C)Oc1ccc(Cc2cnc(N)nc2N)cc1 | 92
37 | C=CC1=C(C(=O)O)N2C(=O)[C@@H](NC(=O)/C(=N/OCC(=O)O)c3csc(N)n3)[C@H]2SC1 | 22.4
38 | O=C1C(SCCO)=C(SCCO)C(=O)c2ccccc21 | 70.9
39 | Oc1cccc(/C=N/Nc2ccc(Cl)nn2)c1O | 138
40 | COc1c(N2CCN(C(=S)NCc3ccccc3)C(C)C2)c(F)cc2c(=O)c(C(=O)O)cn(C3CC3)c12 (configuration not stated) | 43.3
41 | Cc1ccc(C(=O)N/N=C/c2cc(Br)ccc2O)cn1 | 76.5
42 | CCCCCCOC(=O)C[N+](C)(C)CCOC1CC2CCC1(C)C2(C)C (configuration not stated) | 40.1
43 | O=C(N/N=C/c1cc(Cl)ccc1O)c1cccnc1 | 49.3
44 | Nc1c(Cl)ncnc1N/N=C/c1ccccn1 | 30.8
45 | CC[n+]1c(/C=C/c2ccc(N(C)C)cc2)ccc2ccccc21 | 54.8
46 | Cc1ccc(C(c2cc(Cl)c3cccnc3c2O)N2CCN(C)CC2)cc1 (configuration not stated) | 55.5

Row | SMILES | IC50 [µM]
47 | CCCCCCCOC(=O)C[N+](C)(C)CCOC1CC2CCC1(C)C2(C)C (configuration not stated) | 25.3
48 | CCCCCCCNC(=O)C1(CC2CC(c3ccc(Cl)cc3)=NO2)CCNCC1 (configuration not stated) | 54.5
49 | CCCCCCCCCCCCCCCC[N+](C)(C)C | 34.3
50 | Cc1nc([N+](=O)[O-])c(Br)n1CC(=O)c1ccccc1 | 146
51 | Cc1ccccc1Nc1cc(C)c2c(O)cccc2n1 | 61.9
52 | CCn1cc(C(=O)O)c(=O)c2cc(F)c(N3CCN(C(=S)NC(=O)c4ccccc4F)CC3)cc21 | 28.5
53 | COc1c(N2CCN(C(=S)NC3CC4CCC3C4)C(C)C2)c(F)cc2c(=O)c(C(=O)O)cn(C3CC3)c12 (configuration not stated) | 22.2
54 | O=C(/C=C/c1ccccc1Cl)c1ccccc(=O)c1O | 40.1
55 | C1=C(CCNCc2ccccc2)CCCC1 | 9.02
56 | OC(c1cc(C(F)(F)F)nc2c(Cl)cc(Cl)cc12)C1CCCCN1 (configuration not stated) | 101
57 | O=C1NN(c2ccccc2)C(=O)/C1=C\c1coc2ccc(O)cc2c1=O | 132
58 | CCn1cc(C(=O)O)c(=O)c2cc(F)c(N3CCN(C(=S)NC(=O)c4ccccc4)CC3)cc21 | 10.5
59 | Cc1ccc(S(=O)(=O)/N=C2/C=C(Sc3ncn[nH]3)C(=O)c3ccccc32)cc1 | 53.8
60 | CN(C)C1C(=O)C(C(N)=O)=C(O)C2(O)C(=O)C3=C(O)c4c(O)cccc4C(C)(O)C3CC12 (configuration not stated) | 3.55
61 | CN1CCN(CCCN2c3ccccc3Sc3ccc(Cl)cc32)CC1 | 71.2
62 | Cc1ccc(Nc2cc(C)c3c(O)cccc3n2)cc1C | 75.3
63 | CC(=O)c1c(C)n([O-])c2ccccc2[n+]1=O | 119
64 | CN1CCN(C(c2ccc(Cl)cc2)c2cc(Cl)c3cccnc3c2O)CC1 (configuration not stated) | 44.1
65 | CC(C)CCNCC(O)CON=C1c2ccccc2-c2ccccc21 (configuration not stated) | 123
66 | CN(C)c1ccc(O)c2c1CC1CC3[C@@H](N(C)C)C(=O)C(C(N)=O)=C(O)[C@]3(O)C(=O)C1=C2O (some centres not stated) | 9.56
67 | O=C(N/N=C/c1cc(O)ccc1Br)c1cccnc1 | 61.8
68 | CCn1cc(C(=O)NCCCN(C)C)c(=O)c2cc(F)c(N3CCN(C)CC3)cc21 | 49.1
69 | CCn1cc(C(=O)O)c(=O)c2cc3c(cc21)OCO3 | 43

Row | SMILES | IC50 [µM]
70 | CN1CCc2c(sc(NC(=O)c3ccc([N+](=O)[O-])o3)c2C(N)=O)C1 | 52.8
71 | Cc1cc(C)n(-c2nc(NCCN(C)C)c3c4c(sc3n2)CCCC4)n1 | 103
72 | CN(C)C1C(=O)C(C(N)=O)=C(O)C2(O)C(=O)C3=C(O)c4c(O)cccc4C(C)(O)C3C(O)C12 (configuration not stated) | 1.7
73 | CCCCNC(=O)c1cn(CC)c2cc(N3CCN(C)CC3)c(F)cc2c1=O | 23.7
74 | Nc1ncn(C2O[C@H](CO)[C@@H](O)[C@H]2O)c(=O)n1 (some centres not stated) | 39.9
75 | Cc1ccc(C(C[N+](=O)[O-])c2c(N)n(C)c(=O)n(C)c2=O)cc1 (configuration not stated) | 62.3
76 | C=CCNc1ncnc2c1[nH]c1ccc(Cl)cc12 | 137
77 | Cc1c2ccncc2c(C)c2c1[nH]c1ccccc12 | 26.3
78 | COc1ccccc1CNCC(O)Cn1c2ccccc2c2ccccc21 (configuration not stated) | 104
79 | Cc1ccc(C)c(/C=C/C(=O)c2ccccc(=O)c2O)c1 | 89.4
80 | CN1CCN(C(c2ccc(C(F)(F)F)cc2)c2cc(Cl)c3cccnc3c2O)CC1 (configuration not stated) | 34
81 | CC1CCc2c(N3CCC(O)CC3)c(F)cc3c(=O)c(C(=O)O)cn1c23 (configuration not stated) | 6.24
82 | COc1ccc(/C=N/Nc2cc(C)nc3ccccc23)cc1 | 38.5
83 | Cc1nc(N)c(Cc2ccc(Cl)cc2Cl)c(N)n1 | 105
84 | Cc1sc2ncnc(N/N=C/c3ccccc3O)c2c1C | 82.2
85 | O=C(Nc1ccc(Cl)c(Cl)c1)Nc1ccccc1O | 135
86 | O=C(NC(CO)C(O)c1ccc([N+](=O)[O-])cc1)C(Cl)Cl (configuration not stated) | 9.67
87 | CCCC(=O)NC(c1cccs1)c1cc([N+](=O)[O-])c2cccnc2c1O (configuration not stated) | 38.2
88 | COC(=O)C(C)NC(=S)N1CCN(c2c(F)cc3c(=O)c(C(=O)O)cn(C4CC4)c3c2OC)CC1C (configuration not stated) | 75.4
89 | Cc1cc(C)c(NC(=O)c2cn3c4c(c(N5CCN(C)CC5)c(F)cc4c2=O)OCC3C)c(C)c1 (configuration not stated) | 20.3
90 | CCCCCCCSc1cc(OC)c(CCN(C)C)cc1OC | 67.5
91 | Nc1nonc1C(=O)N/N=C/c1cc(Br)ccc1O | 17.1
92 | CCCCCCCCCCCCCCCCn1cc[n+](C)c1 | 17.1

Row | SMILES | IC50 [µM]
93 | Cc1ccc(S(=O)(=O)Nc2cc(Cl)c(O)c3ncccc23)cc1 | 52.4
94 | O=C(CSc1ccccn1)N/N=C/c1cc([N+](=O)[O-])ccc1O | 58
95 | COC(=O)C1C(O)C(C)C(O)C(C)/C=C\C=C(/C)C(=O)Nc2c(C)c(OC(C)=O)c3c(c2O)C(=O)C(C)=C2OCOC(=C23)/C(C)=C/C(C)(O)C(O)C(C)C1O (configuration not stated) | 14.8
96 | CCCCCCCCCn1c2c(c(=N)c3c1CCC3)CCCC2 | 30.9
97 | COc1cc([N+](=O)[O-])cc(/C=N\NC(=O)C2COc3ccccc3O2)c1O (configuration not stated) | 129
98 | CSCC[C@H](NC(=O)Nc1ccc(C)cc1)C(=O)O | 123
99 | COc1ccc(OCC(O)CNc2ccc(Br)cc2)cc1 (configuration not stated) | 37.2
100 | CCCCOc1ccc(Br)cc1CSC(=N)N | 89.9
101 | Nc1nc(N2CCN(C/C=C/c3ccccc3)CC2)nc2ccccc12 | 147
102 | O=C1c2ccccc2NC(c2ccc(-c3ccc(Br)cc3)o2)N1O (configuration not stated) | 106
103 | O=Nc1ccc(O)c2ncccc12 | 56.3
104 | COc1ccc(C(=O)N/N=C/c2sc3ccccc3c2O)cc1 | 107
105 | Clc1ccc(C[n+]2cc(-c3ccc(Cl)cc3)n3c2CCC3)cc1 | 127
106 | O=C(N/N=C/c1cccc([N+](=O)[O-])c1O)c1cccs1 | 24.7
107 | Cn1cnc([N+](=O)[O-])c1Oc1cccc(O)c1 | 113
108 | O=[N+]([O-])c1cc(O)c2ncccc2c1 | 27.9
109 | CC1CCC(C(C)C)C(OC(=O)Cn2c(COc3ccccc3)[n+](C)c3ccccc32)C1 (configuration not stated) | 72.3
110 | Cc1nnc(N/N=C/c2ccccn2)[nH]c1=O | 42
111 | Cc1ccccc1OCc1n(CC(=O)OC2CC(C)CCC2C(C)C)c2ccccc2[n+]1C (configuration not stated) | 71
112 | Cc1ccccc1NC(=O)CCC(=O)N/N=C/c1cc([N+](=O)[O-])ccc1O | 95.7
